Data reported in patent publication US7507407B2, “Immunoliposomes that optimize internationalization into target cells” (The Regents of the University of California, priority 1994, dated 2009).

Legend:
[1] = test system: SK-BR-3 cells; settings: treated 1 hour, counted after 3 days, doxorubicin concentration
Method: (A) SK-BR-3 cells. […] Cells in culture were treated for 1 hour with: conventional immunoliposomes (triangles); sterically stabilized (2 mole % PEG-PE) immunoliposomes (closed circles); control (irrelevant antibody) sterically stabilized (2 mole % PEG-PE) immunoliposomes (open circles); or free doxorubicin alone (closed squares). Immunoliposomes contained 60-70 μg antibody/μmol phospholipid and 55-80 μg doxorubicin/μmol phospholipid; antibody/doxorubicin ratio was 0.8-1.2. Cells were counted 3 days after treatment as described in Methods.
To test the cytotoxicity of doxorubicin-loaded immunoliposomes, SK-BR-3 or WI-38 cells in monolayer culture were incubated with free doxorubicin or doxorubicin-loaded immunoliposomes for 1 hour, and then washed extensively with media. The cells were then further incubated at 37° C. for 3 days, after which cell number was estimated by crystal violet staining as described above.

[2] = test system: WI-38 cells; assay: cytotoxicity of doxorubicin-loaded immunoliposomes, WI-38 cells; format: cell-based; settings: minimal p185^HER2

COc1cccc2c1C(=O)c1c(O)c3c(c(O)c1C2=O)C[C@@](O)(C(=O)CO)C[C@@H]3O[C@H]1C[C@H](N)[C@H](O)[C@H](C)O1 [doxorubicin]
IC50 cytotoxicity [1]: approximately 0.3 μg/ml | cytotoxicity against WI-38 cells [2]: significant dose-dependent cytotoxicity
